Reference: patent publication EP0459829A1, “Pharmacologically active CNS compounds” (THE WELLCOME FOUNDATION LIMITED, priority 1990, dated 1991)

How the values were obtained:
[1] = system: veratrine-evoked release of glutamate from rat brain slices; assay: Inhibition of veratrine-evoked release of glutamate from rat brain slices; assay type: cell-based; details: read-out: IC50(µM) Glutamate Release (P95 limits)
Protocol: (§1) A compound of Formula (1) was tested for its effect on veratrine-evoked release of glutamate from rat brain slices according to the protocol described in Epilepsia 27(5): 490-497, 1986. The protocol for testing for inhibition of DHFR activity was a modification of that set out in Biochemical Pharmacology Vol.20 pp 561-574, 1971.
(§2) The results are given in Table 1, the IC50 being the concentration of compound to cause 50% inhibition of (a) veratrine-evoked release of glutamate and (b) of DHFR enzyme activity.

[2] = molecular target: T1, Rat Liver DHFR (Rattus norvegicus, UniProt Q920D2); assay: Inhibition of DHFR enzyme activity; assay type: biochemical; details: read-out: IC50(µM) Rat Liver DHFR (P95 limits)
T1 construct: from tissue; host or cells: rat liver
T1 sequence (Q920D2 1-187): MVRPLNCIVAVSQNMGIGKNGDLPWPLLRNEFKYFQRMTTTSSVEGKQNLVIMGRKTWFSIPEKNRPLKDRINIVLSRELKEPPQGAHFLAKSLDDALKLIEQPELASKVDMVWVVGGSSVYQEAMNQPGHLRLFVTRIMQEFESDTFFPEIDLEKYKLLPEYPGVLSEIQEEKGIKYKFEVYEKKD
Protocol: as §1, §2

## Nc1nnc(-c2cc(Cl)c(N)c(Cl)c2Cl)c(N)n1 [Example 1, 3,5-Diamino-6-(4-amino-2,3,5-trichlorophenyl)-1,2,4-triazine]
[1]
  IC50: < 10 µM
[2]
  IC50: > 100 µM
